{"source": "paper PMC10504053", "about": "“First-in-Human PET Imaging of [^18F]SDM-4MP3: A Cautionary Tale” (Molecular Imaging, 2023)", "key": {"SV2A": {"target": "SV2A", "parameters": "method as in PMID 34722967, PMID 24446373", "conditions": "affinity to SV2A, in vitro binding; cited from earlier work"}, "[1]": {"target": "T1, synaptic vesicle protein 2A (SV2A) (Homo sapiens, UniProt Q7L0J3)", "T1 construct": "from tissue; host or cells: brain of living human participants (in vivo PET)", "T1 sequence (Q7L0J3 whole entry)": "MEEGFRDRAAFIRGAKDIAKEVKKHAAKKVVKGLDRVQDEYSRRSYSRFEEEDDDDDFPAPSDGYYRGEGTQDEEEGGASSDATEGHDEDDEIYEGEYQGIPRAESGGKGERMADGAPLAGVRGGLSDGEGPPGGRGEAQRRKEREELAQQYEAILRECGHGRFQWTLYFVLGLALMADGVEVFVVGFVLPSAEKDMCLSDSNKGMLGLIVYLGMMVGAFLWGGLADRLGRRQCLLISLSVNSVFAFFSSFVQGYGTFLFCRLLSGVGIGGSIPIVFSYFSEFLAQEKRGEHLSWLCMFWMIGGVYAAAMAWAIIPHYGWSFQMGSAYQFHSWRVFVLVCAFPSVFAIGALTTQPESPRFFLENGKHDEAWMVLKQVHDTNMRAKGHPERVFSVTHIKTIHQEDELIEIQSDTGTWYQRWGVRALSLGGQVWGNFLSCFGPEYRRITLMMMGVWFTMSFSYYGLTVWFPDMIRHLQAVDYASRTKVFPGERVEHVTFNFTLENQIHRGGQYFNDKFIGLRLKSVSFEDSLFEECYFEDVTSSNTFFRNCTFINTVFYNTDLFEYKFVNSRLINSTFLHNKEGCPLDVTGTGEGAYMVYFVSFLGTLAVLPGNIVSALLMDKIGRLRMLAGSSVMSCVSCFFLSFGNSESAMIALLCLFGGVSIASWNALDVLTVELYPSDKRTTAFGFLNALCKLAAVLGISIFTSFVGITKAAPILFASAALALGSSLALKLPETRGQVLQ", "experiment": "Human brain PET imaging (SUV, SUVR, 1-TCM VT with arterial input function)", "format": "in vivo", "conditions": "for VT (SE %) from fitting of 1-TCM: human brain PET; for time of peak brain uptake: P1 ([18F]SDM-4MP3) vs P3 ([18F]SynVesT-1); for SUVR: 60-90 min, centrum semiovale reference", "from_the_text": "All human components of the study were approved according to the Research Ethics Board for Human Subjects at CAMH (CTA 125, REB 075/2019). All participants were recruited from the community and provided written informed consent. Participant inclusion criteria were self-report of good health. Exclusion criteria included any history of neurological or psychiatric disorder; cognitive impairment according to MoCA assessment (score less than 26); pregnancy and/or nursing; and disorders of coagulation, blood, or ongoing use of anticoagulant medication. Each participant's height, weight, current medications, and smoking status was recorded. Participants abstained from taking […] medications, including aspirin [13], for 24 hours prior to the PET exam (see Table 1).\nParticipants were scanned on a 5-ring GE Discovery MI PET/CT (GE Healthcare Technologies, Chicago, Illinois). Participants 1 and 2 (P1 and P2) were scanned with [^18F]SDM-4MP3 (the radiopharmaceutical synthesized from the ABX precursor), and [^18F]SynVesT-1 (synthesized from the Yale precursor) was used for PET imaging of participants 3 and 4 (P3 and P4). A thermoplastic facemask (Tru-Scan Imaging, Annapolis) was used to restrict head motion within the PET scanner bore. CT was used to acquire a scout scan, followed by a low-dose scan for attenuation correction. The radiopharmaceutical (target dose 185 MBq ± 10%, molar activity > 11 GBq/μmol) was delivered starting 30 s after the initiation of the emission scan, with a smooth bolus injection by hand (2-5 s) via intravenous line placed in the antecubital vein, followed by a 10 mL saline flush to clear residual activity from the line. Emission data was acquired for 120-125 min, allowing up to 5 min for a background frame sampled at 1 s intervals to determine the precise starting time of brain uptake, and used to establish the duration of the background frame inserted prior to dynamic frame reconstruction. Data acquired after the start of brain uptake was reconstructed into frames using FORE rebinning and filtered back-projection, using a Hanning filter at the Nyquist frequency to create a dynamic image set. Frame definitions were 30 s × 3, 60 s × 3, 120 s × 2, 300 s × 22 (total = 120 min). For use as a reference for motion correction, images were also reconstructed without attenuation correction using an iterative method with 4 subsets and 6 iterations. All reconstructions were performed using vendor algorithms on the GE DMI console. […] A spatial resolution of approximately 5.8 × 5.8 × 5.6 mm was achieved (measured in accordance with National Electrical Manufacturers Association NU 2-2007 standards). The mean injected activity was 192.7 MBq for [^18F]SDM-4MP3 and 184.3 MBq for [^18F]SynVesT-1 (Table 1).\n(§1) The arterial line was placed into the radial artery by a qualified respiratory therapist. Up to 160 mL of arterial blood was collected via automated blood sampler (ABSS, Comecer PBS-101) and via manual samples for plasma metabolite correction. The ABSS protocol was started ~15 s after emission scan start, and pump speed was set to 300 mL/h, to reduce dispersion in ABSS lines during maximum rate of change of arterial activity concentration, at 1 s sampling period for 5 min and 2 s sampling period for 136 s. Pump speed was decreased to 180 mL/h at a sampling period of 5 s for the following 360 s and a sampling period of 10 s for 540 s, for a total sampling time of 22 min and 16 s. Manual samples were collected at baseline, 2.5, 7, 12, 15, 20, 30, 45, 60, 90, and 110 min relative to emission scan start into PTFE tubes, followed by a saline flush for all except 2.5- and 7-min samples to avoid discontinuities in arterial data during peak uptake.\n(1) Image Registration and Region of Interest. […]"}, "[2]": {"experiment": "Arterial plasma radiometabolite analysis (column-switching HPLC) in human participants", "format": "in vivo", "conditions": "human arterial plasma parent fraction, compared with [18F]SynVesT-1", "procedure": "as §1, with “Manual samples were collected at baseline, 2.5, 7, 12, 15, 20, 30, 45, 60, 90, and 110 min relative to emission scan start into PTFE tubes, followed by a saline flush for all except 2.5- and 7-min samples to avoid discontinuities in arterial data during peak uptake.” left out\nBaseline whole blood samples were centrifuged at 3100 RPM at room temperature for 5 min to extract plasma. […] Each subsequent manual sample was centrifuged at 3900 rpm at 4°C for 5 min, and 0.3 mL of whole blood and 0.3 mL of plasma were extracted and measured on a gamma counter (Wizard 2480, Perkin Elmer, Turku, Finland) to quantify activity concentration.\n(1) Column-Switching HPLC. […] Samples were initially analyzed in capture mode with the capture solvent flow rate of 1.8 mL/min for 4 min before switching to analysis mode with the analysis solvent running at 1.8 mL/min for an additional 12 min. […]"}, "[3]": {"target": "T2, synaptic vesicle protein 2A (SV2A) (Rattus norvegicus, UniProt Q02563)", "T2 construct": "from tissue; host or cells: brain of living Sprague-Dawley rats (in vivo PET)", "T2 sequence (Q02563 whole entry)": "as the sequence (Q7L0J3 whole entry) above, with D53E, S62A, T71A, E144D, A154T, G440S, S482A, I572V, M634L counted along it", "experiment": "Preclinical PET imaging in rats (whole-brain uptake)", "format": "in vivo, Sprague-Dawley rats", "conditions": "for initial peak uptake in the rodent brain: rat whole-brain time-activity curve", "procedure": "Preclinical PET imaging studies were approved by the Animal Care Committee at CAMH (Animal Use Protocol #838). Six adult Sprague-Dawley rats were scanned for 120 min on either a Mediso nanoScan PET/MR 3 T or PET/CT scanner (Budapest, Hungary), and the images were analyzed using VivoQuant® software (version 4.1, Invicro LLC, Needham, MA, USA), as described previously. Five rats (3 M/2F, 528 ± 46 g) were used for the baseline [^18F]SynVesT-1 scans (injected dose: 13.3 ± 3.2 MBq; molar activity: 157 ± 64 GBq/μmol; mass injected: 0.22 ± 0.08 nmol/kg), with two of the male rats also scanned after injection of the blocking drug levetiracetam (cat#L1784, LKT Laboratories Inc, St Paul, MN, USA) at 30 mg/kg (i.v., 15 min before the tracer; injected dose: 10.2 ± 0.1 MBq; molar activity: 78 ± 15 GBq/μmol; injected mass: 0.24 ± 0.04 nmol/kg). One female rat (273 g) was used for the 120 min scan with [^18F]SDM-4MP3 (injected dose: 13.0 MBq; molar activity: 125.5 GBq/μmol; injected mass: 0.38 nmol/kg). Acquired list mode data were sorted into thirty-nine 3-dimensional (3D) (3 × 5 s, 3 × 15 s, 3 × 20 s, 7 × 60 s, 17 × 180 s, and 6 × 600 s) true sinograms (ring difference 84) and reconstructed with a 2D filtered back-projection algorithm with corrections for detector geometry, efficiencies, attenuation, and scatter and dead time and were decay-corrected to the start of acquisition. Static images of the complete emission acquisition (0-120 min) were reconstructed with the manufacturer's proprietary iterative 3D algorithm (6 subsets and 4 iterations). SUVs were calculated by normalizing regional radioactivity for injected radioactivity and body weight."}, "[4]": {"conditions": "human brain time-activity curves"}}, "data": [{"smiles": "Cc1ccncc1CN1CC(c2cc(F)cc(F)c2)CC1=O", "note": "(centres unmarked) [SDM-4MP3]", "values": [{"measurement": "Ki", "setting": "SV2A", "value": 291, "unit": "nM"}]}, {"smiles": "Cc1cnccc1CN1C[C@@H](c2cc(F)cc(F)c2)CC1=O", "note": "[SynVesT-1]", "values": [{"measurement": "Ki", "setting": "SV2A", "value": 3.1, "unit": "nM"}]}, {"smiles": "Cc1ccncc1CN1C[C@@H](c2cc(F)cc([18F])c2)CC1=O", "note": "[[^18F]SDM-4MP3]", "values": [{"measurement": "VT (SE %) from fitting of 1-TCM", "setting": "[1]; Centrum semiovale, participant P1", "value": "1.6 (1.8%)"}, {"measurement": "VT (SE %) from fitting of 1-TCM", "setting": "[1]; Centrum semiovale, participant P2", "value": "1.7 (2.0%)"}, {"measurement": "VT (SE %) from fitting of 1-TCM", "setting": "[1]; Cerebellum, participant P1", "value": "1.6 (1.4%)"}, {"measurement": "VT (SE %) from fitting of 1-TCM", "setting": "[1]; Frontal cortex, participant P1", "value": "1.8 (1.6%)"}, {"measurement": "VT (SE %) from fitting of 1-TCM", "setting": "[1]; Frontal cortex, participant P2", "value": "1.9 (3.4%)"}, {"measurement": "VT (SE %) from fitting of 1-TCM", "setting": "[1]; Hippocampus, participant P1", "value": "1.8 (1.4%)"}, {"measurement": "VT (SE %) from fitting of 1-TCM", "setting": "[1]; Hippocampus, participant P2", "value": "1.8 (3.4%)"}, {"measurement": "VT (SE %) from fitting of 1-TCM", "setting": "[1]; Putamen, participant P1", "value": "2.0 (1.3%)"}, {"measurement": "VT (SE %) from fitting of 1-TCM", "setting": "[1]; Putamen, participant P2", "value": "2.1 (3.4%)"}, {"measurement": "initial brain penetration (SUV)", "setting": "[1]; human brain time-activity curves, P1", "value": "~ 7 SUV"}, {"measurement": "clearance from brain", "setting": "[1]; human brain time-activity curves, in contrast to [18F]SynVesT-1", "value": "rapid clearance from brain"}, {"measurement": "time of peak brain uptake", "setting": "[1]; [4]", "value": 2.5, "unit": "min"}, {"measurement": "factor by which VT estimates were lower than expected", "setting": "[1]; human, one-tissue compartment model, vs expected for [18F]SynVesT-1", "value": "> 10"}, {"measurement": "SUVR", "setting": "[1]; throughout the brain, human", "value": "under 2"}, {"measurement": "rate of radiometabolism", "setting": "[2]", "value": "slightly slower"}, {"measurement": "initial peak uptake in the rodent brain", "setting": "[3]; baseline", "value": 3.2, "unit": "SUV"}, {"measurement": "brain uptake in 0-120 min static image", "setting": "[3]; rat, barely above tissues outside of the brain", "value": "very limited brain uptake"}, {"measurement": "whole-brain TAC clearance", "setting": "[3]; rat, vs. [18F]SynVesT-1", "value": "much faster clearance"}, {"measurement": "brain uptake relative to blocked [18F]SynVesT-1 scans", "setting": "[3]; rat, comparator scans after levetiracetam 30 mg/kg i.v. 15 min before tracer", "value": "lower than [^18F]SynVesT-1 scans performed under preblocking conditions with levetiracetam"}]}, {"smiles": "Cc1cnccc1CN1C[C@@H](c2cc(F)cc([18F])c2)CC1=O", "note": "[[^18F]SynVesT-1, reference compound]", "values": [{"measurement": "VT (SE %) from fitting of 1-TCM", "setting": "[1]; Centrum semiovale, participant P3", "value": "2.9 (1.4%)"}, {"measurement": "VT (SE %) from fitting of 1-TCM", "setting": "[1]; Centrum semiovale, participant P4", "value": "3.5 (7.7%)"}, {"measurement": "VT (SE %) from fitting of 1-TCM", "setting": "[1]; Cerebellum, participant P3", "value": "13.1 (0.7%)"}, {"measurement": "VT (SE %) from fitting of 1-TCM", "setting": "[1]; Cerebellum, participant P4", "value": "16.3 (4.9%)"}, {"measurement": "VT (SE %) from fitting of 1-TCM", "setting": "[1]; Frontal cortex, participant P3", "value": "15.4 (0.4%)"}, {"measurement": "VT (SE %) from fitting of 1-TCM", "setting": "[1]; Frontal cortex, participant P4", "value": "18.3 (5.1%)"}, {"measurement": "VT (SE %) from fitting of 1-TCM", "setting": "[1]; Hippocampus, participant P3", "value": "14.9 (0.6%)"}, {"measurement": "VT (SE %) from fitting of 1-TCM", "setting": "[1]; Hippocampus, participant P4", "value": "17.0 (6.2%)"}, {"measurement": "VT (SE %) from fitting of 1-TCM", "setting": "[1]; Putamen, participant P3", "value": "16.1 (0.5%)"}, {"measurement": "VT (SE %) from fitting of 1-TCM", "setting": "[1]; Putamen, participant P4", "value": "22.23 (4.7%)"}, {"measurement": "SUVR", "setting": "[1]; cortical regions, human", "value": "greater than 7"}, {"measurement": "time of peak brain uptake", "setting": "[1]; [4]", "value": 20, "unit": "min"}, {"measurement": "initial peak uptake in the rodent brain", "setting": "[3]; baseline", "value": "7.6 ± 0.7", "unit": "SUV"}, {"measurement": "brain uptake SUVs in static image", "setting": "[3]; rat, 0-120 min static image, baseline", "value": "~8", "unit": "SUV"}]}]}
